Structures can show the parent of a compound that is named as a salt.
How the values were obtained:
MIA PaCa-2 cells = assay: MIA PaCa2 cell-based assay (1,536-well high-content imaging ALDEFLUOR assay); design: species or system human; conditions: Homo sapiens, 0.5 h, ALDEFLUOR BAAA substrate 500 nM, 30 minutes
Procedure, shortened: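 High-content ALDEFLUOR imaging readout: BAA-retaining cells in FITC channel scored against Hoechst-counted nuclei. Before imaging, MIA PaCa-2 cells seeded at 1,000 per well received final 500 nM BAAA and 0.5 nM Hoechst with compounds in 16-point series (1.4 nM to 47.8 μM), 30 min, 37° C.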

ALDH1A1 enzyme = target: T1, ALDH1A1 enzyme (Homo sapiens, UniProt P00352); assay: ALDH1A1 enzymatic assay (in vitro); format: biochemical; conditions: ALDH1A1 enzyme 20 nM, NAD+ 1 mM, propionaldehyde 80 μM; read-out: ALDH1A1 IC50
T1 sequence (P00352 1-501): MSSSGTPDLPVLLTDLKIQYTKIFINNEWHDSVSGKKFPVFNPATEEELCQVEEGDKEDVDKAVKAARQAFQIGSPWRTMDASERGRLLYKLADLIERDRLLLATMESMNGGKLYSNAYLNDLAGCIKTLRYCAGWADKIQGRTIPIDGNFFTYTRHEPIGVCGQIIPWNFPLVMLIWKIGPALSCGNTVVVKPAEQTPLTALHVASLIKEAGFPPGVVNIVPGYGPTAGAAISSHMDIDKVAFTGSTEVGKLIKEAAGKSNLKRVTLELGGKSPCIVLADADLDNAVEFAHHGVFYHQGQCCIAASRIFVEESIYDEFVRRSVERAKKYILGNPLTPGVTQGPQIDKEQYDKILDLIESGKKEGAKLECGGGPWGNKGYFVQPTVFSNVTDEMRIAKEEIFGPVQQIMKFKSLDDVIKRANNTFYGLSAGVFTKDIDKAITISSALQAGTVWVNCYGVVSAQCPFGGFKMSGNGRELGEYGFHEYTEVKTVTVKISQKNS
Procedure, shortened: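 ALDH1A1 (20 nM final) in 100 mM HEPES pH 7.5, 0.01% Tween 20 was preincubated 15 min at RT with compound (968 pM–57.2 μM final), then started with 1 mM NAD+ and 80 μM propionaldehyde. NADH fluorescence (ex 340/em 450 nm) followed kinetically for 10 min; change normalized to no-inhibitor and no-enzyme controls for percent inhibition and curve fitting.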

Structure (SMILES) | IC50 (MIA PaCa-2 cells) [nM] | IC50 (ALDH1A1 enzyme) [nM]
CS(=O)(=O)C1CCN(C(=O)c2cnc3ccc(F)cc3c2N2CCC3(CC2)OCCO3)CC1 [Example 185, (6-fluoro-4-(1,4-dioxa-8-azaspiro[4.5]decan-8-yl)quinolin-3-yl)(4-(methylsulfonyl)piperidin-1-yl)methanone] | 1000 to 10000 | < 500
CC1(C#N)CCN(c2c(C(=O)N3CCN(C(=O)C4CC4)CC3)cnc3ccc(Cl)cc23)CC1 [Example 117, 1-(6-chloro-3-(4-(cyclopropanecarbonyl)piperazine-1-carbonyl)quinolin-4-yl)-4-methylpiperidine-4-carbonitrile] | 1000 to 10000 | < 500
COc1ccc2ncc(C(=O)N3CCC(OC)CC3)c(N3CCC4(CC3)OCCO4)c2c1 [Example 2, (6-methoxy-4-(1,4-dioxa-8-azaspiro[4.5]decan-8-yl)quinolin-3-yl)(4-methoxypiperidin-1-yl)methanone, TFA] | 1000 to 10000 | < 500
CC1(C#N)CCN(c2c(C(=O)N3CCN(S(=O)(=O)N4CCCC4)CC3)cnc3cc(F)c(F)cc23)CC1 [Example 178, 1-(6,7-difluoro-3-(4-(pyrrolidin-1-ylsulfonyl)piperazine-1-carbonyl)quinolin-4-yl)-4-methylpiperidine-4-carbonitrile] | > 10000 | 1000 to 10000
N#CC1(c2ccc(-c3c(C(=O)N4CC5(CC(O)C5)C4)cnc4ccc(F)cc34)cc2)CC1 [Cpd. 335, 1-(4-(6-fluoro-3-(6-hydroxy-2-azaspiro[3.3]heptane-2-carbonyl)quinolin-4-yl)phenyl)cyclopropane-1-carbonitrile] | 1000 to 10000 | < 500
COc1ccc2ncc(C(=O)N3CCC(c4ccccc4)CC3)c(N3CCC4(CC3)OCCO4)c2c1 [Example 10, (6-methoxy-4-(1,4-dioxa-8-azaspiro[4.5]decan-8-yl)quinolin-3-yl)(4-phenylpiperidin-1-yl)methanone, TFA] | > 10000 | < 500
CCNC(=O)N1CCN(C(=O)c2cnc3c(F)c(F)c(F)cc3c2N2CCC(C)(C#N)CC2)CC1 [Example 148, 4-(4-(4-cyano-4-methylpiperidin-1-yl)-6,7,8-trifluoroquinoline-3-carbonyl)-N-ethylpiperazine-1-carboxamide] | 1000 to 10000 | 1000 to 10000
O=C(c1cnc2c(F)cc(F)cc2c1N1CCC2(CC1)OCCO2)N1CCN(C(=O)N2CCCC2)CC1 [Example 160, (6,8-difluoro-4-(1,4-dioxa-8-azaspiro[4.5]decan-8-yl)quinolin-3-yl)(4-(pyrrolidine-1-carbonyl)piperazin-1-yl)methanone] | > 10000 | < 500
CN(C)S(=O)(=O)N1CCN(C(=O)c2cnc3c(F)cc(F)cc3c2N2CCC3(CC2)OCCO3)CC1 [Example 162, 4-(6,8-difluoro-4-(1,4-dioxa-8-azaspiro[4.5]decan-8-yl)quinoline-3-carbonyl)-N,N-dimethylpiperazine-1-sulfonamide] | 500 to 1000 | < 500
CC1(O)CCN(C(=O)c2cnc3ccc(F)cc3c2N2CCC(C#N)(c3ccccc3)CC2)CC1 [Cpd. 349, 1-(6-fluoro-3-(4-hydroxy-4-methylpiperidine-1-carbonyl)quinolin-4-yl)-4-phenylpiperidine-4-carbonitrile] | < 500 | < 500
COc1ccc2ncc(C(=O)N3CCN(C(=O)C4CC4)CC3)c(N3CCC(C)(C)CC3)c2c1 [Example 18, (4-(cyclopropanecarbonyl)piperazin-1-yl)(4-(4,4-dimethylpiperidin-1-yl)-6-methoxyquinolin-3-yl)methanone, TFA] | 1000 to 10000 | < 500
CCN(CC)C(=O)N1CCN(C(=O)c2cnc3ccc(F)cc3c2N2CCC3(CC2)OCCO3)CC1 [Example 149, N,N-diethyl-4-(6-fluoro-4-(1,4-dioxa-8-azaspiro[4.5]decan-8-yl)quinoline-3-carbonyl)piperazine-1-carboxamide] | 1000 to 10000 | < 500
CN(C)C(=O)Cn1cc(NC(=O)c2cnc3ccc(F)cc3c2-c2ccc(C3(C#N)CC3)cc2)cn1 [Cpd. 346, 4-(4-(1-cyanocyclopropyl)phenyl)-N-(1-(2-(dimethylamino)-2-oxoethyl)-1H-pyrazol-4-yl)-6-fluoroquinoline-3-carboxamide] | > 10000 | 1000 to 10000
COc1ccc2c(N3CCC4(CC3)OCCO4)c(C(=O)N3CCN(S(C)(=O)=O)CC3)cnc2c1 [Example 129, (7-methoxy-4-(1,4-dioxa-8-azaspiro[4.5]decan-8-yl)quinolin-3-yl)(4-(methylsulfonyl)piperazin-1-yl)methanone] | 1000 to 10000 | < 500
COc1c(F)cc2c(N3CCC4(CC3)OCCO4)c(C(=O)N3CCN(C(=O)C4CC4)CC3)cnc2c1F [Example 123, (4-(cyclopropanecarbonyl)piperazin-1-yl)(6,8-difluoro-7-methoxy-4-(1,4-dioxa-8-azaspiro[4.5]decan-8-yl)quinolin-3-yl)methanone] | 1000 to 10000 | < 500

Second part, the compound after the results:

IC50 (MIA PaCa-2 cells) [nM] | IC50 (ALDH1A1 enzyme) [nM] | Structure (SMILES)
< 500 | < 500 | CS(=O)(=O)N1CCN(C(=O)c2ccc3ccccc3c2-c2ccc(C3(C#N)CC3)cc2)CC1 [Example 300, 1-(4-(2-(4-(methylsulfonyl)piperazine-1-carbonyl)naphthalen-1-yl)phenyl)cyclopropanecarbonitrile]
> 10000 | < 500 | CS(=O)(=O)N1CCN(C(=O)c2cnc3ccc(F)cc3c2N2CCN(S(=O)(=O)C3CC3)CC2)CC1 [Example 252, (4-(4-(cyclopropylsulfonyl)piperazin-1-yl)-6-fluoroquinolin-3-yl)(4-(methylsulfonyl)piperazin-1-yl)methanone]
> 10000 | 1000 to 10000 | C=CC(=O)N1CCN(c2c(C(=O)N3CCN(S(C)(=O)=O)CC3)cnc3ccc(F)cc23)CC1 [Example 220, 1-(4-(6-fluoro-3-(4-(methylsulfonyl)piperazine-1-carbonyl)quinolin-4-yl)piperazin-1-yl)prop-2-en-1-one]
> 10000 | < 500 | CC(O)C1(c2ccccc2)CCN(c2c(C(=O)N3CCN(S(C)(=O)=O)CC3)cnc3ccc(F)cc23)CC1 (stereo not shown) [Example 253, (6-fluoro-4-(4-(1-hydroxyethyl)-4-phenylpiperidin-1-yl)quinolin-3-yl)(4-(methylsulfonyl)piperazin-1-yl)methanone]
< 500 | < 500 | CS(=O)(=O)C1CCN(C(=O)c2cnc3ccc(F)cc3c2-c2ccc(C3(C#N)CC3)cc2)CC1 [Example 266, 1-(4-(6-fluoro-3-(4-(methylsulfonyl)piperidine-1-carbonyl)quinolin-4-yl)phenyl)cyclopropanecarbonitrile]
> 10000 | 1000 to 10000 | CS(=O)(=O)N1CCN(C(=O)c2cnc3ccc(F)cc3c2N2CCC(CC#N)CC2)CC1 [Example 214, 2-(1-(6-fluoro-3-(4-(methylsulfonyl)piperazine-1-carbonyl)quinolin-4-yl)piperidin-4-yl)acetonitrile]
> 10000 | 1000 to 10000 | O=C(c1cnc2ccc(F)cc2c1N1CCC(CO)(c2ccccc2)CC1)N1CCN(C(=O)C2CC2)CC1 [Example 255, (4-(cyclopropanecarbonyl)piperazin-1-yl)(6-fluoro-4-(4-(hydroxymethyl)-4-phenylpiperidin-1-yl)quinolin-3-yl)methanone]
1000 to 10000 | < 500 | CC1(C#N)CCN(c2c(C(=O)N3CCC(S(C)(=O)=O)CC3)cnc3cc(F)c(F)cc23)CC1 [Example 190, 1-(6,7-difluoro-3-(4-(methylsulfonyl)piperidine-1-carbonyl)quinolin-4-yl)-4-methylpiperidine-4-carbonitrile]
1000 to 10000 | < 500 | CC1(C#N)CCN(c2c(C(=O)N3CCN(C(=O)C4CC4)C4(CC4)C3)cnc3ccc(F)cc23)CC1 [Example 232, 1-(3-(4-(cyclopropanecarbonyl)-4,7-diazaspiro[2.5]octane-7-carbonyl)-6-fluoroquinolin-4-yl)-4-methylpiperidine-4-carbonitrile]
500 to 1000 | < 500 | CC(=O)C1(c2ccccc2)CCN(c2c(C(=O)N3CCN(C(=O)C4CC4)CC3)cnc3ccc(F)cc23)CC1 [Example 215, 1-(1-(3-(4-(cyclopropanecarbonyl)piperazine-1-carbonyl)-6-fluoroquinolin-4-yl)-4-phenylpiperidin-4-yl)ethanone]
> 10000 | < 500 | CS(=O)(=O)N1CCN(C(=O)c2cnc3ccc(F)cc3c2N2CCC(Cc3ccccc3)CC2)CC1 [Example 198, (4-(4-benzylpiperidin-1-yl)-6-fluoroquinolin-3-yl)(4-(methylsulfonyl)piperazin-1-yl)methanone]
